Broadly, the IC50 is the concentration needed to halve the response being measured.

SMILES strings stand for the structures.

The values below come from publication PMC11844072, “Novel 5,6-dichlorobenzimidazole derivatives as dual BRAFWT and BRAFV600E inhibitors: design, synthesis, anti-cancer activity and molecular dynamics simulations” (BMC Chemistry, 2025).

For assay [1], the target named is T1, BRAFWT (Homo sapiens, UniProt P15056).
T1 construct: purchased BPS Biosciences 78316
The following applies: cited from earlier work.

The subject of assay [2] is PDGFR-β. Details: method as in PMID 35636123. The following applies: cited from earlier work.
For assay [3], the system named is FLT-3. Also on record: method as in PMID 35636123. The following applies: cited from earlier work.
The test system of assay [4] is c-KIT. Also on record: method as in PMID 35636123. The conditions noted are these: cited from earlier work.
Assay [5] concerns the target BRAFV600E (Homo sapiens, UniProt P15056, V600E). Details: purchased BPS Biosciences 48688. The following applies: cited from earlier work.
Assay [6] concerns the target VEGFR-2 (Homo sapiens, UniProt P35968). Details: purchased. The conditions noted are these: cited from earlier work.
Assay [7] has as its target FGFR-1 (Homo sapiens, UniProt P11362). Details: purchased. The following applies: cited from earlier work.
The subject of assay [8] is HepG2 cell line. Details: method as in PMID 28505536, PMID 32053964. The following applies: antiproliferative activity; cited from earlier work.
Assay [9] concerns HSF cell line. Put plainly: Cytotoxicity on HSF normal cell line (SRB assay). The conditions noted are these: HSF normal human skin fibroblast; mean of three ± SD. The assay is classed as cell-based. How it is done:
The dichlorobenzimidazole derivative 10h was tested in Nawah scientific—Cairo—Egypt for its cytotoxic activity on HSF cell line as stated in the Additional file A [53, 54].
6. Analysis of 10h on HSF normal cell line
Human Skin Fibroblast (HSF) was obtained from Nawah Scientific Inc., (Mokatam, Cairo, Egypt). Cells were maintained in DMEM media supplemented with […] of streptomycin, 100 units/mL of penicillin and 10% of heat-inactivated fetal bovine serum in humidified, 5% (v/v) CO2atmosphere at 37 °C. Cell viability was assessed by SRB assay. Aliquots of 100 μL cell suspension (5x10^3 cells) were in 96-well plates and incubated in complete media for 24 h. Cells were treated with another aliquot of 100 μL media containing drugs at various concentrations.
After drug exposure, cells were fixed by replacing media with 150 μL of 10% TCA and incubated at 4 °C for 1 h. The TCA solution was removed, and the cells were washed 5 times with distilled water. Aliquots of 70 μL SRB solution (0.4% w/v) were added and incubated in a dark place at room temperature for 10 min. Plates were washed 3 times with 1% acetic acid and allowed to air-dry overnight. Then, 150 μL of TRIS (10 mM) was added to dissolve protein-bound SRB stain; the absorbance was measured at 540 nm using an Infinite F50 microplate reader (TECAN, Switzerland).
6.2. Dose response curve of 10h on HSF normal cell line
Figure 66. […]
(In SRB staining, fixed cells bind dye roughly in proportion to their protein.)

T1 sequence (P15056 whole entry): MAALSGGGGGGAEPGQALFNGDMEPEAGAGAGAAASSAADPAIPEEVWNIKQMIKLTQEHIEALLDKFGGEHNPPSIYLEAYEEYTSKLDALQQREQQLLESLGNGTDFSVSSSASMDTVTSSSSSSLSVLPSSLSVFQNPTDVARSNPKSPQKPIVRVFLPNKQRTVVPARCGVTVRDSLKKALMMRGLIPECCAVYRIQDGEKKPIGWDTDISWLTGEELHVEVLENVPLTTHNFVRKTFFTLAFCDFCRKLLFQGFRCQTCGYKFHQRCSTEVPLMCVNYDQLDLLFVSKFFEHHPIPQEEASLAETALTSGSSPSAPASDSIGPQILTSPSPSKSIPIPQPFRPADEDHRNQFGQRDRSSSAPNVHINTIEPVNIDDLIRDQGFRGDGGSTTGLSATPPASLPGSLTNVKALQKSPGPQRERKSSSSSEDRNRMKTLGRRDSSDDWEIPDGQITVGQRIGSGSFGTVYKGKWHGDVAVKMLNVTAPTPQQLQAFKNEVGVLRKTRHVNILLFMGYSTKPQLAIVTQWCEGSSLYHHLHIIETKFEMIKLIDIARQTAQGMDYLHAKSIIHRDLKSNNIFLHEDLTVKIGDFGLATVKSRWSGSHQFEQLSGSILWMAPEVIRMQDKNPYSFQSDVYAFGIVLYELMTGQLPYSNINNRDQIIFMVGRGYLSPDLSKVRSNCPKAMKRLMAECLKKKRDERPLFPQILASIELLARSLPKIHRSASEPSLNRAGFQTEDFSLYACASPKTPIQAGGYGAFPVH
Chain of BRAFV600E (P15056 whole entry V600E): as the sequence (P15056 whole entry) above, with V600E counted along it
Chain of VEGFR-2 (P35968 20-1356): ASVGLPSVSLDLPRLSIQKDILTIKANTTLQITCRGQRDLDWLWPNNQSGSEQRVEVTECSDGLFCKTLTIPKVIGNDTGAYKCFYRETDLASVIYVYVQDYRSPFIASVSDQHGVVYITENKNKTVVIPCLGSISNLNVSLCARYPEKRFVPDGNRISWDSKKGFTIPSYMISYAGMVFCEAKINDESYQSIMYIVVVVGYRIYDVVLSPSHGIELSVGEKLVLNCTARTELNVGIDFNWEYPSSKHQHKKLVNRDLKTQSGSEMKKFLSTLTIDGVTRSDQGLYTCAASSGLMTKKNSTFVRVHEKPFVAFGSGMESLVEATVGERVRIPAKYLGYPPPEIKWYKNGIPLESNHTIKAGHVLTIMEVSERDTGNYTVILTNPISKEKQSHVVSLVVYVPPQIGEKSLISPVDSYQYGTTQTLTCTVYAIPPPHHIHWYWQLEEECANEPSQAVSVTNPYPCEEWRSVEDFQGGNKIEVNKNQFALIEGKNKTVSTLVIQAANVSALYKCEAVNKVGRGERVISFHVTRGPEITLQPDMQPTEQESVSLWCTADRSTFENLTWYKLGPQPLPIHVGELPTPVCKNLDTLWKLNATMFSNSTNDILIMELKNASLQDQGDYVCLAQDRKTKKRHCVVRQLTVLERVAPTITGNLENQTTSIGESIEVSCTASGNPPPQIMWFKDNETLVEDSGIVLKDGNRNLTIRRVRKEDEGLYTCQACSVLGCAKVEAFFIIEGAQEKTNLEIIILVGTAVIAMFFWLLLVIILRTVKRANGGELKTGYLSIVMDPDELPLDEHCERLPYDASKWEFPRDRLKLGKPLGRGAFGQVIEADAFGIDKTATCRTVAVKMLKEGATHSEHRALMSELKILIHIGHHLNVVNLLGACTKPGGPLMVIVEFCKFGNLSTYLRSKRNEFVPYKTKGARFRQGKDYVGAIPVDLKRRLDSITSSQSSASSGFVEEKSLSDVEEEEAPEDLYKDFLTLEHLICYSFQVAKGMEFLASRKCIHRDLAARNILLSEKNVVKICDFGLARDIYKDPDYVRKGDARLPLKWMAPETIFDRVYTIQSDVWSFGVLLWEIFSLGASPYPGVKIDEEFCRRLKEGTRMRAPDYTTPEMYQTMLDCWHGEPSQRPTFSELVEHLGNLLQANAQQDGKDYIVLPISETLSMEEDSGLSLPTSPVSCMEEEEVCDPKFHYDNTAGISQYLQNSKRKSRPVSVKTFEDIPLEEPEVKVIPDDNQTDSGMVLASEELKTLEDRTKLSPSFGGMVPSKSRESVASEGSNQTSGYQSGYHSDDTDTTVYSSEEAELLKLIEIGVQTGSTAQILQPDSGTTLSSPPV
Chain of FGFR-1 (P11362 22-822): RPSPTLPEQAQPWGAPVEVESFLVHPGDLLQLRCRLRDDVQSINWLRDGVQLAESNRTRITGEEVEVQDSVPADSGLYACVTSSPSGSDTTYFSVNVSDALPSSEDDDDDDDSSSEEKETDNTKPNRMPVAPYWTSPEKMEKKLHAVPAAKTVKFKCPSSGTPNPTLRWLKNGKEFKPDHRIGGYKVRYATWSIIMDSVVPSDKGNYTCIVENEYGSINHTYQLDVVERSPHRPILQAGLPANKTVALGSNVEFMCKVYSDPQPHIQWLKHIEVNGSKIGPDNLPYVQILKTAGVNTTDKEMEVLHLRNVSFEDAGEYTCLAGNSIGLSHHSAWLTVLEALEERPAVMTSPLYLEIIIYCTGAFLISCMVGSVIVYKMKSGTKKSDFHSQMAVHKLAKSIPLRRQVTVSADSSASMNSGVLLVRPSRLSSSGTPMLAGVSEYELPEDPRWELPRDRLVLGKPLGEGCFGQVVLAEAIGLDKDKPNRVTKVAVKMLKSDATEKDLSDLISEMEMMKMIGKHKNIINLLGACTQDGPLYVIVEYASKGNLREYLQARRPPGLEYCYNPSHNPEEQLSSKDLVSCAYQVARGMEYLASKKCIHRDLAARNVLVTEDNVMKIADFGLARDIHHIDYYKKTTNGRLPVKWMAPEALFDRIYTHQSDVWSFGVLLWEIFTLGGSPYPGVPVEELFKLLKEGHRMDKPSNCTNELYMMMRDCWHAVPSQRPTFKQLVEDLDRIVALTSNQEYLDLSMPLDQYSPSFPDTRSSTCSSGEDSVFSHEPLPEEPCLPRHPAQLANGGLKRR

For `Cc1ccc(-n2c(SCC(=O)Nc3ccc(-c4nc5ccccc5[nH]4)cc3)nc3ccccc3c2=O)cc1` [III], the half-inhibitory concentration (IC50) in [1] is 6.74 µM; in [2] it was 0.03 µM; in assay [3] it was 0.13 µM; in assay [4], 0.12 µM; in assay [5], 2.47 µM.
Consider `O=C1Nc2ccc(Br)cc2/C1=N\NC(=O)c1ccc2[nH]c(-c3ccccc3)nc2c1` [IV], for which the IC50 in assay [1] was 0.02 µM; in assay [6], 0.18 µM; in [7], 1.65 µM; in assay [5] it was 1.52 µM.
For `CC(C)c1nc2ccccc2n1CC(=O)N/N=C/c1cccc(OCc2ccccc2)c1` [V], the 50% inhibitory concentration (IC50) in [8] was 1.98 µM.
Take `CNC(=O)c1cc(Oc2ccc(NC(=O)Nc3ccc(Cl)c(C(F)(F)F)c3)cc2)ccn1` [Sorafenib, reference compound]: half-maximal inhibition in assay [9] (IC50) was put at 2.25 ± 0.14 µM.
